Results taken from US20100161239A1, “QU[…]” (VICRO BVBA, priority 2003, published 2010).

Experiments:
HIV virus strains 1-4 = test: Measured phenotype (pFR = -log fold resistance), censored values, genotype/phenotype dataset; type: cell-based; conditions: pFR = -log(FR)
Method: (§1) For the purposes of the invention, the mutations identified should be associated with resistance or susceptibility to drug therapy, for example an antiretroviral drug. The degree to which a particular mutation pattern may affect resistance may be determined by one of skill in the art, for example, using the phenotypic resistance monitoring assay such as, the ANTIVIROGRAM® (Virco, Belgium) (see WO97/27480). In this methodology, resistance is determined with respect to a laboratory reference strain HIVLAI/IIIB. The difference in IC50 (the concentration of drug required to reduce the virus' growth in cell culture by 50%) between the patient sample and the reference viral strain is determined as a quotient. This fold change in IC50 is reported and indicative of the resistance profile of a certain drug. Based on the changes in IC50, cut-off values have been established to distinguish a sample from being sensitive or resistant to a certain drug.
The phenotypes are presented as pFR values, where pFR is equal to −log(FR), where FR denotes the Fold Resistance. Negative pFR values thus denote resistance and positive values denote hyper-susceptibility. For example, a pFR value of −1.0 is equal to 10-fold resistance.
The used dataset consists of a set of matching genotype/phenotype measurements with possible multiple phenotype measurements per genotype. The mutations are defined relative to HXB2 at amino acid level. The phenotypes are presented as pFR values, which is equal to −log(FR), where FR denotes the Fold Resistance.
In this example, the method developed by the inventors to deal with censored values was applied for the drug amprenavir. Firstly, a linear regression model without censored values was calculated, see the values ‘APV_pFR’ for iteration 0 in the Tables 18-21 below. The phenotypic measured value is <−2.083062017 for Virus strain 1, for the first iteration, the value V0 is equal to the measured phenotype value APV_pFR, but the censor is considered as ‘=’. This was followed by iteration nr. 1. Once the values were obtained from iteration 1, the inventors compared the prediction value P, e.g. for Virus strain 1, −2.362076895 with the phenotypic measured value <−2.083062017. For virus strains 1, 2 and 3 below, the measured values have a censor ‘<’. For virus strains 4, the measured value has a censor ‘>’. The scenarios established by the inventors, when the case was ‘<’-censor, and when the case was ‘>’-censor, were applied. New linear regression models were calculated and for the censored values in the linear regression model, either the data-points from the training set were removed, as for virus strains 1, 2 and for virus strain 4 (iteration 2 and 3 only), or those data-points were used instead of the censored phenotypes measurement, as illustrated for virus strain 3 and for virus strain 4 (only iteration 1). The procedure was reiterated until the prediction converged.

one HIV-1 sample = test: Phenotypic antiviral experiment (as described in WO97/27480), fold change in IC50/EC50 relative to reference wild-type virus; type: cell-based; conditions: fold change in IC50 or EC50 relative to reference wild-type virus
Method: as §1
The results were expressed in FR, or fold change in IC50 or EC50, relative to reference wild-type virus, which is the drug concentration at which 50% of the enzyme activity is inhibited, and is expressed in μM units. The FR cutoffs values for normal susceptible ranges were 8, 10, and 6, for nevirapine, delavirdine, and efavirenz, respectively.
The phenotypic antiviral experiment was taken as the gold-standard by the inventors. Said phenotypic antiviral experiment was performed as described in WO97/27480.

## CC(C)CN(C[C@@H](O)[C@H](Cc1ccccc1)NC(=O)O[C@H]1CCOC1)S(=O)(=O)c1ccc(N)cc1 [APV, amprenavir]
HIV virus strains 1-4; Virus strain 1, censor '<'
  APV_pFR (phenotypic measured value): < −2.083
HIV virus strains 1-4; Virus strain 1, censor '<', listed as amprenavir
  APV_pFR (phenotypic measured value): < −2.083
HIV virus strains 1-4; Virus strain 2, censor '<'
  APV_pFR (phenotypic measured value): < −1.909
HIV virus strains 1-4; Virus strain 3, censor '<'
  APV_pFR (phenotypic measured value): <−1.957
HIV virus strains 1-4; Virus strain 4, censor '>'
  APV_pFR (phenotypic measured value): > 0.5154

## Cc1ccnc2c1NC(=O)c1cccnc1N2C1CC1 [Nevirapine]
One HIV-1 sample
  FR (phenotypic antiviral experiment): >89

## CC(C)Nc1cccnc1N1CCN(C(=O)c2cc3cc(NS(C)(=O)=O)ccc3[nH]2)CC1 [delavirdine]
One HIV-1 sample
  FR (phenotypic antiviral experiment): 3.7

## O=C1Nc2ccc(Cl)cc2[C@@](C#CC2CC2)(C(F)(F)F)O1 [efavirenz]
One HIV-1 sample
  FR (phenotypic antiviral experiment): 17.5
